Laboratory results reported in ChEMBL document CHEMBL1130650, “Nitroglycosylated meso-arylporphyrins as photoinhibitors of gram positive bacteria” (1998).
In brackets after ≈: the same amount, converted by molar mass. Activity calls are given as the source filed them. No cut-off for these calls is given here. Where a SMILES comes first, the peptide text is derived from it. Bridges are numbered along the chain shown (N, C = ends). [ ]: non-standard residue; d: D form. The star is where a group is joined. NMePhe(4-NMe2) = CN[C@@H](Cc1ccc(N(C)C)cc1)C(=O)O; Pip(4-oxo) = O=C1CCN[C@H](C(=O)O)C1; Picolinoyl(3-OH) = O=C(c1ncccc1O)*; Phg = N[C@H](C(=O)O)c1ccccc1; dAbu = CC[C@@H](N)C(=O)O

Experiments:
Escherichia coli [1] = assay: Compound was tested for photoinhibition of Escherichia coli (CIP 548T); Partially resistant; format: functional, organism-based
Staphylococcus aureus [2] = assay: Compound was tested for photoinhibition of Staphylococcus aureus(CIP 53156); format: functional, organism-based
Escherichia coli [3] = assay: Compound was tested for photoinhibition of Escherichia coli (CIP 548T); Sensitive; format: functional, organism-based
Staphylococcus aureus [4] = assay: Compound was tested for photoinhibition of Staphylococcus aureus(CIP 53156); Sensitive; format: functional, organism-based
Escherichia coli [5] = assay: Compound was tested for photoinhibition of Escherichia coli (CIP 548T); Resistant; format: functional, organism-based
Staphylococcus aureus [6] = assay: Compound was tested for photoinhibition of Staphylococcus aureus(CIP 53156); […]; format: functional, organism-based
Staphylococcus aureus [7] = assay: Compound was tested for photoinhibition of Staphylococcus aureus(CIP 53156); Partially resistant; format: functional, organism-based
Staphylococcus aureus [8] = assay: Compound was tested for antibacterial activity against Staphylococcus aureus CIP 53156; format: functional

Structure (SMILES)	Antibiotic resistance (Escherichia coli [3])	Antibiotic resistance (Staphylococcus aureus [4])	other results
CC(=O)OCC1=C(C(=O)O)N2C(=O)[C@@H](NC(=O)Cc3cccs3)[C@H]2SC1			Antibiotic resistance (Escherichia coli [1]): Partially resistant; Antibiotic resistance (Staphylococcus aureus [2]): Partially resistant
CC1(C)S[C@@H]2[C@H](NC(=O)[C@H](N)c3ccc(O)cc3)C(=O)N2[C@H]1C(=O)O	Sensitive		
Nc1ccc(S(N)(=O)=O)cc1	Sensitive	Sensitive	
CC[C@H]1NC(=O)[C@@H](NC(=O)c2ncccc2O)[C@@H](C)OC(=O)[C@H](c2ccccc2)NC(=O)[C@@H]2CC(=O)CCN2C(=O)[C@H](Cc2ccc(N(C)C)cc2)N(C)C(=O)[C@@H]2CCCN2C1=O ({Picolinoyl(3-OH)}-T[dAbu]P[NMePhe(4-NMe2)][Pip(4-oxo)][Phg]; ester 1-C)			Antibiotic resistance (Escherichia coli [5]): Resistant
CC[C@H]1OC(=O)[C@H](C)[C@@H](O[C@H]2C[C@@](C)(OC)[C@@H](O)[C@H](C)O2)[C@H](C)[C@@H](O[C@@H]2O[C@H](C)C[C@H](N(C)C)[C@H]2O)[C@](C)(O)C[C@@H](C)C(=O)[C@H](C)[C@@H](O)[C@]1(C)O		Partially resistant	Antibiotic resistance (Escherichia coli [1]): Partially resistant
CN[C@@H]1[C@H](O[C@H]2[C@H](O[C@H]3[C@H](O)[C@@H](O)[C@H](N=C(N)N)[C@@H](O)[C@@H]3N=C(N)N)O[C@@H](C)[C@]2(O)C=O)O[C@@H](CO)[C@H](O)[C@H]1O	Sensitive	Sensitive	
NC[C@H]1O[C@H](O[C@H]2[C@H](O)[C@@H](O[C@H]3O[C@H](CO)[C@@H](O)[C@H](N)[C@H]3O)[C@H](N)C[C@@H]2N)[C@H](O)[C@@H](O)[C@@H]1O		Sensitive	
CO[C@H]1/C=C/O[C@@]2(C)Oc3c(C)c(O)c4c(O)c(c(/C=N/N5CCN(C)CC5)c(O)c4c3C2=O)NC(=O)/C(C)=C\C=C\[C@H](C)[C@H](O)[C@@H](C)[C@@H](O)[C@@H](C)[C@H](OC(C)=O)[C@@H]1C	Sensitive	Sensitive	
CC1(C)S[C@@H]2[C@H](NC(=O)Cc3ccccc3)C(=O)N2[C@H]1C(=O)O		Sensitive	
CN[C@H](CC(C)C)C(=O)N[C@H]1C(=O)N[C@@H](CC(N)=O)C(=O)N[C@H]2C(=O)N[C@H]3C(=O)N[C@H](C(=O)N[C@H](C(=O)O)c4cc(O)cc(O)c4-c4cc3ccc4O)[C@H](O)c3ccc(c(Cl)c3)Oc3cc2cc(c3O[C@@H]2O[C@H](CO)[C@@H](O)[C@H](O)[C@H]2O[C@H]2C[C@](C)(N)[C@H](O)[C@H](C)O2)Oc2ccc(cc2Cl)[C@H]1O		Sensitive	
CN(C)[C@@H]1C(O)=C(C(N)=O)C(=O)[C@@]2(O)C(O)=C3C(=O)c4c(O)cccc4[C@@](C)(O)[C@H]3C[C@@H]12	Active	Active	
CCn1cc(C(=O)O)c(=O)c2ccc(C)nc21			Antibiotic resistance (Staphylococcus aureus [6]): Resistant
O=C(N[C@H](CO)[C@H](O)c1ccc([N+](=O)[O-])cc1)C(Cl)Cl	Partially resistant		Antibiotic resistance (Staphylococcus aureus [7]): Partially resistant
O=[N+]([O-])c1ccc(-c2c3nc(c(-c4ccc(OC[C@H]5O[C@H](O)[C@H](O)[C@@H](O)[C@@H]5O)cc4)c4nc(c(-c5ccc(OC[C@H]6O[C@H](O)[C@H](O)[C@@H](O)[C@@H]6O)cc5)c5ccc([nH]5)c(-c5ccc(OC[C@H]6O[C@H](O)[C@H](O)[C@@H](O)[C@@H]6O)cc5)c5ccc2[nH]5)C=C4)C=C3)cc1			CI50 (Staphylococcus aureus [8]): 10 µg/mL (≈ 8.37 µM)
